{"source": "paper PMC12236907", "about": "“A Natural Depsipeptide Antibiotic that Targets the E site of the Bacterial Ribosome” (Research Square, 2025)", "key": {"Murine infection model": {"assay": "Murine infection model", "assay_type": "in vivo", "conditions": "initial attempts"}, "bacterial ribosome": {"tested_on": "bacterial ribosome", "assay": "Toeprinting analysis of MKM-induced ribosome stalling", "assay_type": "biochemical, E. coli", "procedure": "Toeprinting analysis was carried out in the E. coli in vitro transcription-translation system assembled from the purified components (PURExpress, NEB). Toeprinting was carried out using either ^32P-radiolabeled or fluorescently labeled reverse transcription primers, following the procedures described previously[21],[26],[27].\nReactions either contained no antibiotic or were supplemented with 50 μM retapamulin or varying concentrations of MKM. The inhibitors of aminoacyl-tRNA synthetases (mupirocin, Gly-AMS (MedChemExpress: Cat. No.: HY-108940), or Arg-AMS (MedChemExpress, Cat. No.: HY-112862)) were added to the final concentrations of 50 μM to stall translation at downstream “catch codons” (Ile, Gly, or Arg, respectively). The gltX template was prepared by amplifying the gltX gene from E. coli BW25113 genomic DNA using the primers T7_gltX_F and gltX_NV1_R (Supplementary Table 6). The yrbA_wt template and its derivatives containing 3-Ser or 3-Thr codons were generated by four-primer PCRs using the primers T7_IR_AUG_F, yrbA_wt_F / yrbA_TTT_F / yrbA_SSS_F, yrbA_wt_R/yrbA_Ile_catch_R, and posT-NV1_R (Supplementary Table 6).\nFluorescently labeled reactions were carried out on the ermBL toeprint mRNA template. The template was generated by PCR of two overlapping 77-nt- and 78-nt-long primers T7_ermBL_F and ermBL_UGA_R (Supplementary Table 6). Reactions were assembled in a 6 μl volume with 30 ng of the ermBL mRNA template and incubated for 15 min at 37 °C. Reverse transcription was carried out using AMV RT and primer NV*1-Alexa 647 (Supplementary Table 6) for 20 min at 37 °C. Reactions were terminated with 1 μl of 5 M NaOH, neutralized with 0.7 μl of 25% HCl, and nucleotide removal was performed with the QIAquick Nucleotide Removal Kit (Qiagen). The samples were dried under vacuum for 2 hours at 60 °C for subsequent gel electrophoresis. The 6% acrylamide gels were scanned on a Typhoon scanner (GE Healthcare). The sequences of all toeprinting templates used in the study can be found in Supplementary Table 7."}, "E. coli BW25113 [1]": {"tested_on": "E. coli BW25113", "assay": "Time-dependent killing assay, E. coli", "assay_type": "cell-based", "conditions": "E. coli BW25113, MHB, 5×MIC (160 μg/ml), 37°C, 0-24 h; mean of three biological replicates", "procedure": "E. coli BW25113 and Klebsiella pneumoniae C1559 were grown overnight in 5 ml of cation-adjusted Mueller-Hinton Broth. The cultures were then inoculated into fresh medium to achieve an OD600 of 0.1, corresponding to a concentration of 10^8 CFU/ml. […] Samples were taken at 0 h, 3 h, 6 h, and 24 h post-incubation, plated on MHA plates, and incubated for 20–24 hours at 37°C. Colony counts were used to determine the log reduction in CFU/ml, comparing treated strains to untreated control samples."}, "[2]": {"tested_on": "K. pneumoniae ATCC 33495 and C1559", "assay": "C. elegans – K. pneumoniae in vivo antibiotic activity assay (survival)", "parameters": "species or system K. pneumoniae in Caenorhabditis elegans", "procedure": "A C. elegans double mutant strain, AU37 (glp-4(bn2);sek-1(km4)), was used for this assay due to its enhanced pathogen infection sensitivity and temperature-sensitive sterility. The infection protocol was carried out as previously described, with slight modifications to accommodate our experimental conditions. Standard C. elegans media and protocols were used for the maintenance and growth of worms. To summarize, eggs were collected from gravid adult worms by bleaching and incubated on solid agar plates at 25 °C for 48 hours, until early adulthood. Worms were thoroughly washed with M9 buffer and transferred onto LB agar plates containing lawns of infective K. pneumoniae and incubated for another 24 hours. Worms were then washed from plates and resuspended in M9 to an approximate 2 worm per microlitre concentration. A survival assay was conducted in a 96-well plate with experimental wells containing 15 μl of worms, 80 μl S-basal (5.85 g NaCl, 1 g K2HPO4, 6 g KH2PO4, 1 ml cholesterol (5 mg/ml in ethanol), H2O to 1 litre. Sterilize by autoclaving), and 5 μl of test compound. Plates were sealed with a porous film and incubated at 25°C for a total of 7 days. The number of dead worms were counted every 24 hours to generate a Kaplan-Meier survival curve."}, "[3]": {"tested_on": "E. coli strain SQ110ΔtolC::pZsbmA", "assay": "Minimum inhibitory concentration, hypersusceptible E. coli SQ110ΔtolC::pZsbmA and its 23S rRNA mutants", "conditions": "11 mutants: deletion of one adenine in A2432-A2435 (10) or of C249 (1) in 23S rRNA"}, "E. coli BW25113 [4]": {"tested_on": "E. coli BW25113"}, "[5]": {"tested_on": "bacteria with resistance mechanisms to other translation-inhibiting antibiotics", "conditions": "bacterial pathogens; unique site of action in the ribosome"}, "[6]": {"conditions": "highly resistant mutants of E. coli BW25113 selected by passaging"}}, "note": "“Also recorded” adds a separate entry of the source. Where a SMILES comes first, the peptide text is derived from it. Bridges are numbered along the chain shown (N, C = ends). [ ]: non-standard residue; d: D form. dOrn = NCCC[C@@H](N)C(=O)O", "data": [{"compound": "C[C@@H](O)[C@@H]1NC(=O)[C@@H](CCCNC(=N)N)NC(=O)[C@@H](CCCNC(=N)N)NC(=O)[C@@H](CC(N)=O)NC(=O)[C@@H](NC(=O)[C@@H](Cc2ccccc2)NC(=O)[C@@H](CCCN)NC(=O)[C@H](N)CCCNC(=N)N)[C@@H](C)OC(=O)[C@H](Cc2c[nH]cn2)NC1=O", "note": "[MKM, manikomycin A] (H-[dR][dOrn][dF]T[dN][dR][dR]TH; ester 4-C)", "values": [{"measurement": "protective effect in murine infection model", "setting": "Murine infection model", "value": "did not yield a strong protective effect"}, {"measurement": "ribosome stalling, ermBL mRNA", "setting": "bacterial ribosome; E. coli in vitro protein synthesis system, ermBL template", "value": "ribosomes stall primarily on the third codon; also recorded: stalled the ribosome on the third codon"}, {"measurement": "ribosome stalling, gltX template", "setting": "bacterial ribosome; gltX template, Gly-AMS in all reactions", "value": "arrested some ribosomes at the start codon, a notable fraction of them became arrested at several specific sites along the mRNA"}, {"measurement": "ribosome stalling, yrbA-SSS template", "setting": "bacterial ribosome; yrbA with three Ser codons after start codon, high concentrations of MKM", "value": "no ribosomes pass downstream of the start codon"}, {"measurement": "ribosome stalling, yrbA-TTT template", "setting": "bacterial ribosome; yrbA with three Thr codons after start codon", "value": "a fraction of ribosomes was able to move through the Thr codons"}, {"measurement": "time-kill effect", "setting": "E. coli BW25113 [1]", "value": "bactericidal"}, {"measurement": "survival benefit in C. elegans (in words)", "setting": "[2]; MKM 64 μg/ml or polymyxin B 25 μg/ml, 6 days, vs DMSO, Log-rank (Mantel–Cox) test", "value": "significantly improved survival; also recorded: markedly improved survival"}, {"measurement": "nematodes alive by day 6", "setting": "[2]; MKM 64 μg/ml, both infection models (ATCC 33495 and C1559), DMSO ~10% (ATCC 33495), ~30% (C1559), n > 60 worms per group", "value": "55–60%"}, {"measurement": "increase in MKM MIC", "setting": "[3]", "value": "> 16", "unit": "fold"}, {"measurement": "increase in MIC", "setting": "E. coli BW25113 [4]; deletion of genes encoding components of the transporter YejABEF", "value": "2–8 fold"}, {"measurement": "MIC", "setting": "E. coli BW25113 [4]; [6]", "value": "512 to 1024", "unit": "µg/mL"}, {"measurement": "increase in MIC over parental strain", "setting": "E. coli BW25113 [4]; [6]", "value": "16- to 32 fold"}, {"measurement": "sensitivity to resistance mechanisms against other translation inhibitors", "setting": "[5]", "value": "insensitive to resistance mechanisms"}]}]}
